Consider four compounds from patent US6498195B2, “Use of 1-propanone-1-(2,4-dihydroxyphenyl)-3-hydroxy-3-(4′-hydroxyphenyl) as an anticarcinogenic agent” (Rutgers, The State University of New Jersey, priority 2000, dated 2002).

Structures are written as SMILES. Like-named read-outs stand apart in the source and are kept apart here.

The test system of assay [1] is bcl-2. Nature of the assay: Bcl-2 expression and phosphorylation assay (Western blot mobility shift). It counts as cell-based. The settings on record: for bcl-2 phosphorylation: immunoblotting, slower migrating band vs vehicle control, cell line not stated. Here is the method:
Analysis of bcl-2 protein expression was performed using a Western blot assay as previously described (Haldar, S. et al. 1996. Cancer Res. 56:1253; Haldar, S. et al. 1995. Proc. Natl. Acad. Sci. USA 92:4507-4511). Protein identification was made using a monoclonal bcl-2 primary antibody (DAKO Corporation) and secondary goat anti-mouse horseradish peroxidase conjugated antibody (Bio-Rad Laboratories, Richmond, CA). The phosphorylation of bcl-2 was determined by mobility shifts in the Western bolt as described by Haldar (Haldar, S. et al. 1996. Cancer Res. 56:1253; Haldar, S. et al. 1995. Proc. Natl. Acad. Sci. USA 92:4507-4511).
Background: Immunoblotting shows a protein as a band on a membrane.

Assay [2] relates to microtubule structure. As to conditions: stated as 'has been shown'; cited from earlier work.
Assay [3] relates to MCF-7 tumor cells. Nature of the assay: Cell cycle analysis by flow cytometry. The format is cell-based. Here is the method:
Cells were treated for 24 hours, incubated with 10 μM BrdU for 45 minutes at 37° C. Cells were then washed with ice-cold PBS, resuspended in 200 μl PBS and fixed with cold 70% ethanol. The cells were resuspended, incubated for 30 minutes in 2 N HCl/0.5% Triton X-100 in PBS, and neutralized by rinsing once in 0.1 M sodium tetraborate (pH 8.5). Fluorescein isothiocyanate (FITC)-conjugated anti-BrdU antibody (Becton Dickinson) was added (10 μg/sample) in 50 μl of 0.5% Tween 20/1% BSA in PBS and incubated for 30 minutes. The cells were washed and resuspended in 1 ml of PBS containing 5 μg/ml propidium iodide. Fluorescence intensity was determined by quantitative flow cytometry and profiles were generated on a Becton Dickinson FACScan. A minimum of 10,000 cells were analyzed.

Assay [4] has as its system microtubule structure. Nature of the assay: Microtubule assay (indirect immunofluorescence). It counts as cell-based. As for the experimental part: Microtubule structure was assessed by indirect immunofluorescence as previously described (Zhang, C. C. et al. 1998. Oncogene 16:1617-1624). Cells were grown on coverslips and fixed in ice-cold methanol at −20° C. after drug treatment. The cells were then incubated with a 1:100 dilution of monoclonal anti-alpha-tubulin antibody (Clone DM 1A, mouse ascites fluid; Sigma) in 3% BSA in PBS for 30 minutes and washed in 3% BSA in PBS for 10 minutes. This was followed by incubation with FITC-goat anti-mouse IgG (1:50 dilution) as a secondary antibody for 30 minutes and washed in 3% BSA/PBS and visualized under a epifluorescent microscope (Zeiss AXIOSKOP) using a plan-NEOFLUAR 100 X oil immersion objective. The photographs were captured on a cooled CCD camera (DAGE-MTI) using Scion Image.

The subject of assay [5] is MCF-7 cells. Here is the method: The Apoalert Annexin V-EGFP method (CLONTECH, Palo Alto, Calif.) was used to assess for apoptosis. Briefly, tumor cells were treated for 2 hours and cells were washed with fixing solution and stained with Annexin V-EGFP and propidium iodide for 15 minutes in the dark. Cells were viewed using a Nikin Eclipse TE-200 (Nikon Corporation, Tokyo, Japan) inverted fluorescent microscope. Photographs were captured using a SPOT digital camera (Diagnostic, Inc., Sterling Heights, Mich.) in combination with SPOT […] (Pharmingen, San Diego, Calif.). Cells (1×10^6 per dish) were treated for 12 hours, washed with PBS, and fixed in 1% paraformaldehyde in ice for 30 minutes. After fixation, cells were washed twice with PBS and fixed in 70% ethanol. The pellets were washed and resuspended in 50 μl of the DNA labeling solution containing Br-dUTP and TdT enzyme and incubated for 60 minutes at 37° C. After incubation, the pellets were washed, incubated with FITC labeled anti-BrdU antibody in the dark for 30 minutes at room temperature, and stained with propidium iodide and RNase. The stained cells were analyzed by flow cytometry after 30 minutes. Cell viability was assessed by the tetrazolium dye method as previously described (Scudiero, D.A. et al. 1988. Cancer Res. 48:4827-4833).

On to `O=C(CC(O)c1ccc(O[C@@H]2O[C@H](CO)[C@@H](O)[C@H](O)[C@H]2O)cc1)c1ccc(O)cc1O` (single isomer, unassigned; peak 1) [peak 1, 1-propanone-1-(2,4-dihydroxyphenyl)-3-hydroxy-3-(4′-hydroxyphenyl-4′o-beta-D-glucapyranoside)], for which the bcl-2 phosphorylation entry in assay [1] is on record as “induce bcl-2 phosphorylation”.

Regarding `O=C(CC(O)c1ccc(O)cc1)c1ccc(O[C@@H]2O[C@H](CO)[C@@H](O)[C@H](O)[C@H]2O)cc1O` (single isomer, unassigned; peak 2) [peak 2, 1-propanone-1-(2,4-dihydroxyphenyl-4′-o-beta-D-glucopyranoside)-3-hydroxy-3-(4′-hydroxyphenyl)], in assay [1], the bcl-2 phosphorylation entry was “induce bcl-2 phosphorylation”.

With `CC(=O)O[C@H]1C(=O)[C@@]2(C)[C@H]([C@H](OC(=O)c3ccccc3)[C@]3(O)C[C@H](OC(=O)[C@H](O)[C@@H](NC(=O)c4ccccc4)c4ccccc4)C(C)=C1C3(C)C)[C@]1(OC(C)=O)CO[C@@H]1C[C@@H]2O` [paclitaxel], the “effect on microtubule structure” value in assay [2] is “induce microtubule bundles”.

For the compound `O=C(CC(O)c1ccc(O)cc1)c1ccc(O)cc1O` (stereo not shown) [DC, 1-propanone-1-(2,4-dihydroxyphenyl)-3-hydroxy-3-(4′-hydroxyphenyl)], the “G2/M cell cycle arrest” value in assay [3] was “induced a G2/M cell cycle arrest”. In addition, the “phosphorylation of bcl-2” value in assay [1] (DUPro-1 tumor cells) and in assay [1] (MCF-7 tumor cells) was “induce phosphorylation of bcl-2” in each case. In addition, the bcl-2 phosphorylation result in assay [1] was “induce bcl-2 phosphorylation”. Also, the “effect on microtubule structure” value in assay [4] is on record as “induce microtubule fragmentation”. For the same compound, the IC50 – broadly, the midpoint of a concentration-inhibition curve – in assay [5] (read-out: IC50, decrease of cell viability, 72 hours) turned out to be 13 µM. For the same compound, in assay [5] (similar to 10 μM camptothecin control), the “apoptosis (extracellular phosphatidylserine detection)” value was “induced apoptosis”.
